Patent EP4620466A1, “TRIMETHOXYSTYRYL DERIVATIVES FOR USE IN THE TREATMENT OF PACLITAXEL-RESISTANT CANCER” (Instituto de Investigación Biomédica de Salamanca De la …, priority 2024, dated 2025)

Experiments:
HeLa cells [1] = assay: Cell proliferation assay with and without verapamil (MDR transporter check); assay type: cell-based; conditions: for potency increase with addition of verapamil: with verapamil versus without
HeLa cells [2] = assay: Cell proliferation assay (XTT), cytostatic activity; assay type: cell-based; conditions: 72-h treatment, XTT cell proliferation kit
Procedure: […] cells were seeded in 96-well plates and incubated in the presence or the absence of the indicated compounds at concentrations ranging from 10^-5 to 10^-12 M. The cytostatic activity was measured after 72-h treatments using the XTT (sodium 3'-[1-(phenylaminocarbonyl)-3,4-tetrazolium]-bis(4- methoxy-6-nitro)-benzenesulfonic acid hydrate) cell proliferation kit (Roche Molecular Biochemicals; Mannheim, Germany) following the manufacturer's specifications. Each condition was seeded in triplicate, and experiments were repeated three times to calculate IC values by non-linear regression fitting the data.

[3] = Homo sapiens, without verapamil (control), compounds for 72 h, read-out: potency in the absence of verapamil
[4] = read-out: potency in the presence of 10 µM verapamil, incubated with 10 µM verapamil for 2 h, then compounds for 72 h

| Compound | IC50 (HeLa cells [2]; Homo sapiens) [nM] | other results |
| --- | --- | --- |
| COc1ccc(CCN(C)CCCC(C#N)(c2ccc(OC)c(OC)c2)C(C)C)cc1OC (stereo not drawn) [Verapamil, verapamil, reference compound] | – | effect on cell proliferation (HeLa cells [1]; verapamil alone at the working concentrations (1 and 10 µM)): no effect |
| COc1cc(N(C)S(=O)(=O)c2ccc3c(ccn3C)c2)cc(OC)c1OC [Compound 46, N,1-dimethyl-N-(3,4,5-trimethoxyphenyl)-1H-indole-5-sulfonamide] | 2.4 | IC50 (HeLa cells [1]; [3]): 2.4 nM; IC50 (HeLa cells [1]; [4]): 1.9 nM |
| COc1cc(/C=C\c2ccc3c(c2)c(/C=N/O)cn3C)cc(OC)c1OC [Compound 31, (Z + E)-1-methyl-5-(3,4,5-trimethoxystyryl)-1H-indole-3-carbaldehyde oxime] | – | potency increase with addition of verapamil (HeLa cells [1]): more than 10 fold |
| COc1cc(OC)cc(N(C)S(=O)(=O)c2ccc3c(c2)c(C#N)cn3C)c1 [Compound 53, 3-cyano-N-(3,5-dimethoxyphenyl)-N,1-dimethyl-1H-indole-5-sulfonamide] | > 1000 | IC50 (HeLa cells [1]; [3]): 551 nM; IC50 (HeLa cells [1]; [4]): 642 nM |
| COc1cc(/C=C\c2ccc3c(c2)c(C=O)cn3C)cc(OC)c1OC [Compound 29, (Z)-1-Methyl-5-(3,4,5-trimethoxystyryl)-1H-indole-3-carbaldehyde] | – | potency increase with addition of verapamil (HeLa cells [1]): more than 10 fold |
| COc1cc(N(C)S(=O)(=O)c2ccc3c(c2)c(C=O)cn3C)cc(OC)c1OC [Compound 49, 3-Formyl-N,1-dimethyl-N-(3,4,5-trimethoxyphenyl)-1H-indole-5-sulfonamide] | 41 | IC50 (HeLa cells [1]; [3]): 41.2 nM; IC50 (HeLa cells [1]; [4]): 44.7 nM |
| COc1cc(NS(=O)(=O)c2ccc3c(ccn3C)c2)cc(OC)c1 [Compound 45, N-(3,5-dimethoxyphenyl)-1-methyl-1H-indole-5-sulfonamide] | 1400 | IC50 (HeLa cells [1]; [3]): > 1000 nM; IC50 (HeLa cells [1]; [4]): > 1000 nM |
| COc1cc(NS(=O)(=O)c2ccc3c(c2)c(C#N)cn3C)cc(OC)c1OC [Compound 50, 3-Cyano-1-methyl-N-(3,4,5-trimethoxyphenyl)-1H-indole-5-sulfonamide] | 21 | IC50 (HeLa cells [1]; [3]): 21.4 nM; IC50 (HeLa cells [1]; [4]): 25.5 nM |
| CSc1cc(C(=O)c2ccc3c(ccn3C)c2)cc(N(C)C)n1 [Compound 89, (2-(dimethylamino)-6-(methylthio)pyridin-4-yl)(1-methyl-1H-indol-5-yl)methanone] | 500 | – |
| COc1cc(/C=C\c2ccc3c(c2)c(C#N)cn3C)cc(OC)c1OC [Compound 33, (Z)-1-Methyl-5-(3,4,5-trimethoxystyryl)-1H-indole-3-carbonitrile] | – | potency increase with addition of verapamil (HeLa cells [1]): more than 10 fold |
| CSc1cc(C(=NO)c2ccc3c(ccn3C)c2)cc(N(C)C)n1 [Compound 91, (2-(Dimethylamino)-6-(methylthio)pyridin-4-yl)(1-methyl-1H-indol-5-yl)methanone oxime] | 600 | – |
| C=C(c1cc(Cl)nc(N(C)C)c1)c1ccc2c(c1)c(C=O)cn2C [Compound 101, 5-(1-(2-chloro-6-(dimethylamino)pyridin-4-yl)vinyl)-1-methyl-1H-indole-3-carbaldehyde] | > 1000 | – |
| Cn1cc(C=O)c2cc(C(=O)c3cc(Cl)nc(Cl)c3)ccc21 [Compound 57, 5-(2,6-dichloroisonicotinoyl)-1-methyl-1H-indole-3-carbaldehyde] | > 1000 | – |
| C=C(c1cc(SC)nc(N(C)C)c1)c1ccc2c(c1)c(C(=O)O)cn2C [Compound 94, 5-(1-(2-(dimethylamino)-6-(methylthio)pyridin-4-yl)vinyl)-1-methyl-1H-indole-3-carboxylic acid] | 700 | – |
| COc1cc(OC)cc(N(C)S(=O)(=O)c2ccc3c(c2)c(C=O)cn3C)c1 [Compound 52, N-(3,5-dimethoxyphenyl)-3-formyl-N,1-dimethyl-1H-indole-5-sulfonamide] | > 1000 | IC50 (HeLa cells [1]; [3]): > 1000 nM; IC50 (HeLa cells [1]; [4]): > 1000 nM |
| C=C(c1ccc2c(ccn2C)c1)c1ccc(OC)c(OC)c1OC [Compound 6, 1-methyl-5-(1-(2,3,4-trimethoxyphenyl)vinyl)-1H-indole] | 32 | – |
| C=C(c1cc(Cl)nc(N(C)C)c1)c1ccc2c(c1)c(C#N)cn2C [Compound 100, 5-(1-(2-chloro-6-(dimethylamino)pyridin-4-yl)vinyl)-1-methyl-1H-indole-3-carbonitrile] | 600 | – |
| C=C(c1cc(Cl)nc(SC)c1)c1ccc2c(c1)c(C(N)=O)cn2C [Compound 70, 5-(1-(2-chloro-6-(methylsulfanyl)pyridin-4-yl)vinyl)-1-methyl-1H indole-3-carboxamide] | > 1000 | – |
| COc1cc(OC)cc(N(C)S(=O)(=O)c2ccc3c(ccn3C)c2)c1 [Compound 47, N-(3,5-dimethoxyphenyl)-N,1-dimethyl-1H-indole-5-sulfonamide] | 20.1 | IC50 (HeLa cells [1]; [3]): 551 nM; IC50 (HeLa cells [1]; [4]): 642 nM |
| CSc1cc(C(=O)c2ccc3c(c2)c(C=O)cn3C)cc(N(C)C)n1 [Compound 92, 5-(2-(dimethylamino)-6-(methylthio)isonicotinoyl)-1-methyl-1H-indole-3-carbaldehyde] | > 1000 | – |
| C=C(c1cc(OC)c(OC)c(OC)c1)c1ccc2c(c1)c(C=O)cn2C [Compound 11, 1-Methyl-5-[1-(3,4,5-trimethoxyphenyl)vinyl]-1H-indole-3-carbaldehyde] | 20 | – |

| Compound | IC50 (HeLa cells [2]; Homo sapiens) [nM] | other results |
| --- | --- | --- |
| C=C(c1cc(OC)c(OC)c(OC)c1)c1ccc2c(c1)c(C(=O)O)cn2C [Compound 16, 1-Methyl-5-(1-(3,4,5-trimethoxyphenyl)vinyl)-1H-indole-3-carboxylic acid] | > 10000 | – |
| Cn1cc(C#N)c2cc(C(=NO)c3cc(Cl)nc(Cl)c3)ccc21 [Compound 60, 5-((2,6-dichloropyridin-4-yl)(hydroxyimino)methyl)-1-methyl-1H-indole-3-carbonitrile] | > 1000 | – |
| C=C(c1cc(OC)c(OC)c(OC)c1)c1ccc2c(c1)c(C(N)=O)cn2C [Compound 25, 1-Methyl-5-(1-(3,4,5-trimethoxyphenyl)vinyl)-1H-indole-3-carboxamide] | 2.5 | – |
| C=C(c1cc(SC)nc(SC)c1)c1ccc2c(c1)c(C(=O)O)cn2C [Compound 80, 5-(1-(2,6-Bis(methylsulfanyl)pyridin-4-yl)vinyl)-1-methyl-1H-indole-3-carboxylic acid] | > 1000 | – |
| C=C(c1cc(Cl)nc(N(C)C)c1)c1ccc2c(ccn2C)c1 [Compound 99, 6-chloro-N,N-dimethyl-4-(1-(1-methyl-1H-indol-5-yl)vinyl)pyridin-2-amine] | 100 | – |
| COc1cc(NS(=O)(=O)c2ccc3c(c2)c(C=O)cn3C)cc(OC)c1OC [Compound 48, 3-Formyl-1-methyl-N-(3,4,5-trimethoxyphenyl)-1H-indole-5-sulfonamide] | 206 | IC50 (HeLa cells [1]; [3]): 206 nM; IC50 (HeLa cells [1]; [4]): 287 nM |
| C=C(c1cc(SC)nc(SC)c1)c1ccc2c(c1)c(C#N)cn2C [Compound 79, 5-(1-(2,6-bis(methylsulfanyl)pyridin-4-yl)vinyl)-1-methyl-1H-indole-3-carbonitrile] | 600 | – |
| C=C(c1cc(OC)nc(SC)c1)c1ccc2c(c1)c(C(=O)O)cn2C [Compound 86, 5-(1-(2-methoxy-6-(methylsulfanyl)pyridin-4-yl)vinyl)-1-methyl-1H-indole-3-carboxylic acid] | > 1000 | – |
| C=C(c1cc(Cl)nc(SC)c1)c1ccc2c(c1)c(C(=O)O)cn2C [Compound 72, 5-(1-(2-Chloro-6-(methylsulfanyl)pyridin-4-yl)vinyl)-1-methyl-1H-indole-3-carboxylic acid] | 80 | – |
| CN(C)c1cc(C(=O)c2ccc3c(ccn3C)c2)cc(Cl)n1 [Compound 98, (2-chloro-6-(dimethylamino)pyridin-4-yl)(1-methyl-1H-indol-5-yl)methanone] | > 1000 | – |
| C=C(c1cc(Cl)nc(Cl)c1)c1ccc2c(c1)c(C=O)cn2C [Compound 58, 5-(1-(2,6-dichloropyridin-4-yl)vinyl)-1-methyl-1H-indole-3-carbaldehyde] | 200 | – |
| C=C(c1cc(OC)c(OC)c(OC)c1)c1ccc2c(ccn2C)c1 [Compound 5, 1-methyl-5-(1-(3,4,5-trimethoxyphenyl)vinyl)-1H-indole] | 2.7 | – |
| 5-(N-(3,5-dimethoxyphenyl)sulfamoyl)-1-methyl-1H-indole-3-carboxamide [Compound 54] | – | IC50 (HeLa cells [2]): 1770 nM |
| C=C(c1cc(Cl)nc(SC)c1)c1ccc2c(c1)c(C#N)cn2C [Compound 71] | – | IC50 (HeLa cells [2]): 100 nM |
| CSc1cc(C(=NO)c2ccc3c(c2)c(C#N)cn3C)cc(Cl)n1 (mixture of isomers) [Compound 69, (E/Z)-5-((2-chloro-6-(methylsulfanyl)pyridin-4-yl)(hydroxyimino)methyl)-1-methyl-1H-indole-3-carbonitrile] | 60 | – |
| C=C(c1cc(SC)nc(SC)c1)c1ccc2c(ccn2C)c1 [Compound 74, 5-(1-(2,6-Bis(methylsulfanyl)pyridin-4-yl)vinyl)-1-methyl-1H-indole] | 500 | – |
| CSc1cc(C(=NO)c2ccc3c(ccn3C)c2)cc(Cl)n1 (mixture of isomers) [Compound 66, (E/Z)-(2-chloro-6-(methylsulfanyl)pyridin-4-yl) (1-methyl-1H-indol-5-yl)methanone oxime] | 300 | – |
| C=C(c1cc(OC)c(OC)c(OC)c1)c1ccc2c(c1)c(C#N)cn2C [Compound 23, 1-Methyl-5-[1-(3,4,5-trimethoxyphenyl)vinyl]-1H-indole-3-carbonitrile] | 2.9 | – |
| COc1cc(C(=NO)c2ccc3c(ccn3C)c2)cc(OC)c1OC (mixture of isomers) [Compound 7, (E/Z)-(I-Methyl-1H-indol-5-yl)(3,4,5-trimethoxyphenyl)methanone oxime] | – | IC50 (HeLa cells [2]): 360 nM |
| COc1ccc(C(C)c2ccc3c(c2)c(C=NN)cn3C)c(OC)c1OC (stereo not drawn) [Compound 22] | – | IC50 (HeLa cells [2]): 420 nM |
